Data on three molecules can be found in US12274751B2, “Composition and method of the use of colchicine oral liquid” (priority 2016, dated 2025).

The structures appear in SMILES notation.

Data set [1] is described as follows: Stability of colchicine solution, colchicine assay (% label claim). It counts as physicochemical. To be noted: API (colchicine drug substance), calculated on the anhydrous, solvent-free basis. The protocol:
The colchicine solution is formulated and assayed for colchicine levels. Stability of the claimed formulation was tested at room temperature, 30° C., and 40° C. and assayed for the colchicine. […] The fact that the oral solution was so stable after 6 months at an accelerated temperature (40 degrees Celsius, which corresponds to 24 months at room temperature) was quite surprising. Solutions of colchicine for oral administration to humans have not been developed because they were believed to be too unstable. The data presented herein show for the first time that an oral colchicine solution can remain stable with minimal degradants and thus have a long shelf life consistent with commercial formulations.
The colchicine solution in Table 4 was packaged in a 190 mL HDPE bottle and assayed by HPLC cUSP.
The label claim of the liquid solution is 0.12 mg/ml and the assay results of the active ingredient are reported as percent of label claim. For instance, the label claim of an exemplary colchicine solution of the invention is 0.12 mg/ml. The FDA requirement for stability results for drugs is 90-110% label claim.

For data set [2] the following is noted: in the presence of glycerin; Habib et al. 1989; cited from earlier work.
Data set [3] can be described thus: in vitro. To be noted: human, Caco-2. The protocol:
To verify the Caco-2 cell monolayers were properly formed, aliquots of the cell buffers were analyzed by fluorescence to determine the transport of the impermeable dye Lucifer Yellow.

For the molecule `COc1cc2c(c(OC)c1OC)-c1ccc(OC)c(=O)cc1[C@@H](NC(C)=O)CC2` [Colchicine, (−)-N-[(7S,12aS)-1,2,3,10-tetramethoxy-9-oxo-5,6,7,9-tetrahydrobenzo[a]heptalen-7-yl]-acetamide], the “Stability Results (% Label Claim)” value in data set [1] is 91.8% Label Claim. In data set [2], the “loss by photodegradation in solution” value is given as at most 50%. `CNC(=C[N+](=O)[O-])NCCSCc1ccc(CN(C)C)o1` [ranitidine]: in data set [3], the apical-to-basolateral permeability (Papp A→B) turned out to be 0.27 ×10⁻⁶ cm/s. Consider `COCCc1ccc(OCC(O)CNC(C)C)cc1` (centres unmarked) [metoprolol], for which, in data set [3], the Papp A→B is 13.7 ×10⁻⁶ cm/s and the Papp B→A is 27.2 ×10⁻⁶ cm/s.
